Key:
[1] = test system: NADH oxidase activity of isolated plasma membranes of normal rat kidney cells; experiment: NADH oxidase assay, plasma membranes of normal rat kidney cells
[2] = test system: circulating NADH oxidase in the serum; experiment: NADH oxidase activity of human serum; assay type: biochemical
Protocol: (§1) Spectrophometric assay of NADH oxidase. NADH oxidase activity was determined as the disappearance of NADH measured at 340 nm in a reaction mixture containing 25 mM Tris-MES buffer (pH 7.2), 1 mM KCN to inhibit the low levels of contaminating mitochondrial oxidase activity, and 150 µM NADH at 37°C with constant stirring. Activity was measured using a Hitachi U3210 spectrophotometer with continuous recording over two intervals of 5 min each. A millimolar extinction coefficient of 6.22 was used to determine specific activity.

[3] = test system: plasma membrane NADH oxidase; experiment: Spectrophotometric NADH oxidase assay, rat liver plasma membranes (normal cells); assay type: biochemical
Protocol: Purification of plasma membranes from rat liver. A 5000 x g pellet from the preparation of Golgi apparatus (Morré (1971) Meth. Enzymol. 22, 130-148) was the starting material. The fluffy layer which contains the Golgi apparatus fraction was mixed, withdrawn and excluded from the plasma membrane preparations. Cold 1 mM NaHCO3 (5 ml) was added to each tube and the friable yellow-brown upper part of the pellet was resuspended with a pen-brush, leaving the reddish tightly packed bottom part of the pellet undisturbed. The resuspended material was homogenized in aliquots of 5 ml each in a 30 ml stainless steel homogenizer (Duragrind) 20 times by hand. The homogenates were combined, diluted with cold 1 mM NaHCO3 (1:1 dilution), and centrifuged at 6000 x g in a HB rotor for 15 min. The supernatant was discarded and the pellet was used for the two-phase separation (Morré & Morré (1989) BioTechniques 7:946-958).
The two-phase system contained 6.4% (w/w) Dextran T-500 (Pharmacia), 6.4% (w/w) polyethylene glycol) 3350 (Fisher), and 5 mM potassium phosphate buffer (pH 7.2) (Morré & Morré, 1989, supra). The homogenate (1 g) was added to the two-phase system and the weight of the system was brought to 8 g with distilled water. The tubes were inverted vigorously for 40 times in the cold (4°C). The phases were separated by centrifugation at 750 rpm (150 x g) in a Sorvall HB 4 rotor for 5 min. The upper phases were carefully withdrawn with a pasteur pipette, divided in half and transferred into 40 ml plastic centrifuge tubes and diluted with cold 1 mM NaHCO3. The purified plasma membranes were collected by centrifugation at 10,000 x g in a HB rotor for 30 min. Plasma membrane pellets were resuspended in 50 mM Tris-Mes buffer (pH 7.2) and stored at -70°C. Proteins were determined using the bicinchoninic acid (BCA) assay (Smith et al. (1985) Anal. Biochem. […]: 76-85) with bovine serum albumin as standard.
as §1

COc1cc(CNC(=O)CCCC/C=C/C(C)C)ccc1O [capsaicin] was tested, and the “concentration at which NADH oxidase activity is inhibited” value [1] was > 10^-5 M, the “NADH oxidase activities of human serum, Mean” value [2] was 0.56 and the “Ratio, Mean” value [2] was 0.97. The “effect on NADH oxidase activity (in words)” value [3] was “no effect”.
